What was measured:
[1] = molecular target: Adenosine receptor A1 (Homo sapiens) (UniProt P30542); assay: Displacement of [3H]-DPCPX from human recombinant adenosine A1 receptor at 10 uM after 60 mins by scintillation counting analysis relative to control
[2] = molecular target: Neurotensin receptor type 1 (Homo sapiens, UniProt P30989); assay: Displacement of [125I]Tyr3-neurotensin from human recombinant NTS1 receptor at 1 uM after 120 mins by scintillation counting analysis relative to control
[3] = Volume of distribution at steady state in Sprague-Dawley rat at 1 mg/kg, iv; assay type: ADME, organism-based; conditions: in vivo, read-out: Vdss
[4] = Displacement of [125I]alpha-dendrotoxin from rat brain voltage-gated K channel after 60 mins by scintillation counting analysis
[5] = molecular target: 5-hydroxytryptamine receptor 1B (Rattus norvegicus) (UniProt P28564); assay: Displacement of [125I]-CYP from rat brain 5-HT1B receptor at 10 uM after 120 mins by scintillation counting analysis relative to control
Sequence of 5-hydroxytryptamine receptor 1B (Rattus norvegicus) (P28564 whole entry): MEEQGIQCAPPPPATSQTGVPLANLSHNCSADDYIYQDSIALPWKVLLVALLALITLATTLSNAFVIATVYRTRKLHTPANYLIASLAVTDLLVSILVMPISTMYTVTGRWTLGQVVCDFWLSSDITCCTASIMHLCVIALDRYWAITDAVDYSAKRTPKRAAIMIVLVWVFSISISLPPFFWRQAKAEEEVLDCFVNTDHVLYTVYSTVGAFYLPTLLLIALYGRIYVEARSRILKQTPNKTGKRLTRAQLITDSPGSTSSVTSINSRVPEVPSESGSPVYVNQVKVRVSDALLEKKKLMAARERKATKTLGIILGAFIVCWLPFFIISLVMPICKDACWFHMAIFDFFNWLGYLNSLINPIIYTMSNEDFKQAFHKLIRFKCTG

Histamine H2 receptor = Histamine H2 receptor (Homo sapiens, UniProt P25021); assay: Displacement of [125I]APT from human recombinant histamine H2 receptor at 1 uM after 120 mins by scintillation counting analysis relative to control
[6] = molecular target: Adenosine receptor A3 (Homo sapiens) (UniProt P0DMS8); assay: Displacement of [125I]AB-MECA from human recombinant adenosine A3 receptor at 10 uM after 120 mins by scintillation counting analysis relative to control
[7] = molecular target: Substance-K receptor (Homo sapiens) (UniProt P21452); assay: Displacement of [125I]NKA from human recombinant NK2 receptor at 1 uM after 60 mins by scintillation counting analysis relative to control
[8] = molecular target: C-C chemokine receptor type 1 (Homo sapiens, UniProt P32246); assay: Displacement of [125I]MIP-1alpha from human recombinant CCR1 receptor after 120 mins by scintillation counting analysis
Sequence of C-C chemokine receptor type 1 (P32246 whole entry): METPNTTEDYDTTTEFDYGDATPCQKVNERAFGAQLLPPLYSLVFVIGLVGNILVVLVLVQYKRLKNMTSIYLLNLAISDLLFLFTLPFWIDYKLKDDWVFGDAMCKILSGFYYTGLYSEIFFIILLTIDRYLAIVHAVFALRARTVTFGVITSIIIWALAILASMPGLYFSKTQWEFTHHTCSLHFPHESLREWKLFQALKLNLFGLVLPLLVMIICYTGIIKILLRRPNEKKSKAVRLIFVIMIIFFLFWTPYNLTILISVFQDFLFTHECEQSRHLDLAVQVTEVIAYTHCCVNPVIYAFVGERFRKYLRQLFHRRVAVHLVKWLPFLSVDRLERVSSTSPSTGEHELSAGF

D(2) dopamine receptor = D(2) dopamine receptor (Homo sapiens, UniProt P14416); assay: Displacement of [3H]7-OH-DPAT from human recombinant dopamine D2S receptor after 60 mins by scintillation counting analysis
[9] = molecular target: Adenosine receptor A1 (Homo sapiens) (UniProt P30542); assay: Displacement of [3H]-DPCPX from human recombinant adenosine A1 receptor at 1 uM after 60 mins by scintillation counting analysis relative to control
Homo sapiens = species: Homo sapiens; assay: Binding affinity to GABA-gated chloride channel (unknown origin) at 1 uM by antagonist radioligand binding assay relative to control
Histamine H1 receptor [10] = molecular target: T1, Histamine H1 receptor (Homo sapiens, UniProt P35367); assay: Displacement of [3H]pyrilamine from human recombinant histamine H1 receptor at 10 uM after 60 mins by scintillation counting analysis relative to control
T1 sequence (P35367 whole entry): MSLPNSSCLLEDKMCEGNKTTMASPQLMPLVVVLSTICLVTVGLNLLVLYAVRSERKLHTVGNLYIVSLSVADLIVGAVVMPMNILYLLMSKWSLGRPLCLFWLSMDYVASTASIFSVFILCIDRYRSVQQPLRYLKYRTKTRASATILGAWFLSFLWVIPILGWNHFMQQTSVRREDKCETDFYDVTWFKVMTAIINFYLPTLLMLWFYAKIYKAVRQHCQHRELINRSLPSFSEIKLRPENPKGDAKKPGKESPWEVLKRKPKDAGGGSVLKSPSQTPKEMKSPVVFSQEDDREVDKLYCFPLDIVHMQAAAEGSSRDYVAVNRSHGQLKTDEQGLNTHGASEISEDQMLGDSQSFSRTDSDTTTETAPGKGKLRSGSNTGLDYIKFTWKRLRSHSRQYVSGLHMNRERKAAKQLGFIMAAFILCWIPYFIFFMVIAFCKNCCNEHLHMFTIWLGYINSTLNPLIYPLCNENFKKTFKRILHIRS

[11] = molecular target: Adrenergic receptor alpha-2 (Rattus norvegicus) (UniProt P22086+P19328+P22909); assay: Displacement of [3H]-RX 821002 from rat alpha2 adrenoceptor at 1 uM after 60 mins by scintillation counting analysis relative to control; assay type: protein assay
Rattus norvegicus [12] = species: Rattus norvegicus; assay: Displacement of [3H]flunitrazepam from rat brain central BZD at 10 uM after 60 mins relative to control
[13] = molecular target: Muscarinic acetylcholine receptor M1 (Homo sapiens) (UniProt P11229); assay: Displacement of […] from human recombinant M1 receptor at 10 uM after 60 mins by scintillation counting analysis relative to control
Sequence of Muscarinic acetylcholine receptor M1 (Homo sapiens) (P11229 whole entry): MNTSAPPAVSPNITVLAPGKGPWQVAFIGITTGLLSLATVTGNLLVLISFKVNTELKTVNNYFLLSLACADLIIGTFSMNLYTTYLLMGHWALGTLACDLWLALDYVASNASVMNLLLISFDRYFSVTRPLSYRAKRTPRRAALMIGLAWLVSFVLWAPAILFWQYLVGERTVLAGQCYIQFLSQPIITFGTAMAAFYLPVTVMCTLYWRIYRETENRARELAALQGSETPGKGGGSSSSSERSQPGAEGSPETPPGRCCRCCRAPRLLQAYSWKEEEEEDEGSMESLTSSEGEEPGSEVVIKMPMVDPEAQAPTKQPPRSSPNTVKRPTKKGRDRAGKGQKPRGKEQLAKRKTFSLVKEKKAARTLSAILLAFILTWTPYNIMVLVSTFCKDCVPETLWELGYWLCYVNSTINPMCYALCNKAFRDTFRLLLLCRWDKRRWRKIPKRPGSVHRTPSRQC

[14] = molecular target: Serine/threonine-protein kinase PAK 3 (Homo sapiens) (UniProt O75914); assay: Inhibition of recombinant full length His-tagged human PAK3 expressed in baculovirus expression system at 10 uM in presence of ATP relative to control
[15] = molecular target: Tyrosine-protein kinase JAK2 (Homo sapiens) (UniProt O60674); assay: Inhibition of recombinant GST-tagged human JAK2 catalytic domain (809 to 1153 residues) expressed in baculovirus expression system at 10 uM in presence of ATP relative to control
Sequence of Tyrosine-protein kinase JAK2 (Homo sapiens) (O60674 whole entry, the tested form may be a part): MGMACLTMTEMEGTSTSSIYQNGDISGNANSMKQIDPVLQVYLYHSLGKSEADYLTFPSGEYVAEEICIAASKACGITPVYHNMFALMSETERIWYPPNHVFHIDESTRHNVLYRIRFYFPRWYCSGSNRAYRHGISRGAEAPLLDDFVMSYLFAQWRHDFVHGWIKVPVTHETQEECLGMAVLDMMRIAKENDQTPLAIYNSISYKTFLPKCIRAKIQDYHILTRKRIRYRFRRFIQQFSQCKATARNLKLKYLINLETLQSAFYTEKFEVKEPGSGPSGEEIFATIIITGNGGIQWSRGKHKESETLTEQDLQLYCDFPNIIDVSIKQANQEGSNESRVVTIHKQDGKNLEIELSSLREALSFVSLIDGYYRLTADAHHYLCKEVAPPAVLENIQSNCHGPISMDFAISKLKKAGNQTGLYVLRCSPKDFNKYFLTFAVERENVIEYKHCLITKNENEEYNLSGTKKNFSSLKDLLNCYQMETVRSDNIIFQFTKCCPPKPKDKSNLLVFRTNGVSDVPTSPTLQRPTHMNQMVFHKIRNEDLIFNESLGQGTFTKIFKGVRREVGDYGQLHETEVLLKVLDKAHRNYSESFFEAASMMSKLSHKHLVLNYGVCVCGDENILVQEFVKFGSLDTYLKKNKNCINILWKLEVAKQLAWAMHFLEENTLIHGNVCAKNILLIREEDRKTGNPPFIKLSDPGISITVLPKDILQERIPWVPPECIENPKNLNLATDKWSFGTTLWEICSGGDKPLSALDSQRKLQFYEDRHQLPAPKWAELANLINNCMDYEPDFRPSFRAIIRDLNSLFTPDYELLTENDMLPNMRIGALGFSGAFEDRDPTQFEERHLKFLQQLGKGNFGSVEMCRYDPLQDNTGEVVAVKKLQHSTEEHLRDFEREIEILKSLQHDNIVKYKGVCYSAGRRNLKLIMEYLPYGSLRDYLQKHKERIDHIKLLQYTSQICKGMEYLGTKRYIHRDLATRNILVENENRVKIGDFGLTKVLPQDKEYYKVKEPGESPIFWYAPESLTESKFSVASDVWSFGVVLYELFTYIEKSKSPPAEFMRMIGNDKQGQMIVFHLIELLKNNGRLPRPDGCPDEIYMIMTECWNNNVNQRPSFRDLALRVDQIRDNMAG

[16] = molecular target: Galanin receptor type 2 (Homo sapiens) (UniProt O43603); assay: Displacement of [125I]-endothelin-1 from human recombinant GAL2 receptor at 1 uM after 120 mins by scintillation counting analysis relative to control
[17] = molecular target: Ephrin type-A receptor 2 (Homo sapiens) (UniProt P29317); assay: Inhibition of recombinant GST-tagged human EPHA2 (560 to 976 residues) cytoplasmic domain expressed in baculovirus expression system at 10 uM in presence of ATP relative to control
Sequence of Ephrin type-A receptor 2 (Homo sapiens) (P29317 whole entry, the tested form may be a part): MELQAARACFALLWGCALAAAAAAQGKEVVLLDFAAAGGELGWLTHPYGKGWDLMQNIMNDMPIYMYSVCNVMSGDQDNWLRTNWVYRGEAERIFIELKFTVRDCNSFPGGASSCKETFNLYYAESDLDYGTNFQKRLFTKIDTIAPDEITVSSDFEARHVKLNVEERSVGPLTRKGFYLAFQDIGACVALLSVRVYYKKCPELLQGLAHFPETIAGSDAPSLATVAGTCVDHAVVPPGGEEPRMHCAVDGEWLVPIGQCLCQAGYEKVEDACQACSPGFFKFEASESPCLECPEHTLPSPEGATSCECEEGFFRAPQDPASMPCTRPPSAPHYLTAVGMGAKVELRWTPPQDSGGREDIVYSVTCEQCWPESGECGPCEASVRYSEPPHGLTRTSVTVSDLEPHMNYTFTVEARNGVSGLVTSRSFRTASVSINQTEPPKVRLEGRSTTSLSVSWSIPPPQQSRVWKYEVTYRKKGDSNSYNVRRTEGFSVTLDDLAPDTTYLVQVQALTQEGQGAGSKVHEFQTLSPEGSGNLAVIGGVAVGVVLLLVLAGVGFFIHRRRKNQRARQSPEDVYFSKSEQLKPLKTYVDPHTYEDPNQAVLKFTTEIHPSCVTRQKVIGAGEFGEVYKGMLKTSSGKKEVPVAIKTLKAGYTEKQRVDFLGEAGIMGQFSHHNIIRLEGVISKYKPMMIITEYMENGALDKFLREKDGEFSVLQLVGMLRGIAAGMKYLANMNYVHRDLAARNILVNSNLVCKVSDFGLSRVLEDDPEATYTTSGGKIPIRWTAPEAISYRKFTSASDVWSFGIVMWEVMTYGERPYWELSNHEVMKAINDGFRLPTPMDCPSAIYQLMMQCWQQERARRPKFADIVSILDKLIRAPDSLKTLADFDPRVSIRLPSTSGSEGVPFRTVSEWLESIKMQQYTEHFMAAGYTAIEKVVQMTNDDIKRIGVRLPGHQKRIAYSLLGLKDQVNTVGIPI

D(1A) dopamine receptor = D(1A) dopamine receptor (Homo sapiens, UniProt P21728); assay: Displacement of [3H]-SCH 23390 from human recombinant dopamine D1 receptor at 1 uM after 60 mins by scintillation counting analysis relative to control
[18] = molecular target: Aurora kinase A (Homo sapiens) (UniProt O14965); assay: Inhibition of recombinant full length His-tagged human Aurora A expressed in baculovirus expression system at 10 uM in presence of ATP relative to control
[19] = molecular target: Delta-type opioid receptor (Homo sapiens, UniProt P41143); assay: Displacement of [3H]DADLE from human recombinant delta opioid receptor at 1 uM after 60 mins by scintillation counting analysis relative to control
[20] = molecular target: Type-1 angiotensin II receptor (Homo sapiens) (UniProt P30556); assay: Displacement of [125I][Sar1,Ile8]-AT-II from human recombinant AT1 receptor at 1 uM after 120 mins by scintillation counting analysis relative to control
[21] = molecular target: Somatostatin receptor (Mus musculus) (UniProt P30935+O08858+P30875+P30873+P49660); assay: Displacement of [125I]Tyr11-somatostatin-14 from mouse SST receptor at 10 uM after 60 mins by scintillation counting analysis relative to control; assay type: protein assay
Rattus norvegicus [22] = species: Rattus norvegicus; assay: Displacement of [3H]D 888 from rat brain L-type calcium channel verapamil binding site at 10 uM after 120 mins by scintillation counting analysis relative to control
Cytochrome P450 3A4 = Cytochrome P450 3A4 (Homo sapiens, UniProt P08684); assay: Inhibition of CYP3A4 (unknown origin); assay type: ADME
[23] = molecular target: Tyrosine-protein kinase Blk (Homo sapiens) (UniProt P51451); assay: Inhibition of recombinant full length His-tagged human Blk cytoplasmic domain expressed in Baculovirus expression system at 10 uM in presence of ATP relative to control
Sequence of Tyrosine-protein kinase Blk (Homo sapiens) (P51451 2-505 limits assumed): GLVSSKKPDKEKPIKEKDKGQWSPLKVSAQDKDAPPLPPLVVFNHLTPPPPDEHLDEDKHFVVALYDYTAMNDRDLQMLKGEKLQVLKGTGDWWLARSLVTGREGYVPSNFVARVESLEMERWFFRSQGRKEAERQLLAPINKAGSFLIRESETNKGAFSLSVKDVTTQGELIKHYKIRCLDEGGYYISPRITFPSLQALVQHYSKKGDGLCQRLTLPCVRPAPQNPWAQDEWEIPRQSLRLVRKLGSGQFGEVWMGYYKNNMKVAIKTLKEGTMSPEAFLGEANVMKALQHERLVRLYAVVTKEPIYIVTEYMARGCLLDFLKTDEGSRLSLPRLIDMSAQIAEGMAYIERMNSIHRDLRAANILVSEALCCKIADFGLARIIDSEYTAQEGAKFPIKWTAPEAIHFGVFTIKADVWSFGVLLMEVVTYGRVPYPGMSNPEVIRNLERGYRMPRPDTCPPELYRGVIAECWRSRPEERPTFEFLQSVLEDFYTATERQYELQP

[24] = molecular target: Sodium-dependent serotonin transporter (Homo sapiens, UniProt P31645); assay: Displacement of [3H]-imipramine from recombinant human 5-HT transporter at 10 uM after 60 mins by scintillation counting relative to control
[25] = molecular target: Small conductance calcium-activated potassium channel (Rattus norvegicus, UniProt P70604+P70606+P70605); assay: Displacement of [125I]apamin from rat brain SkCa channel after 60 mins by scintillation counting analysis
Mu-type opioid receptor = Mu-type opioid receptor (Homo sapiens, UniProt P35372); assay: Displacement of [3H]DAMGO from human recombinant mu receptor after 120 mins by scintillation counting analysis
Sequence of Mu-type opioid receptor (P35372 whole entry): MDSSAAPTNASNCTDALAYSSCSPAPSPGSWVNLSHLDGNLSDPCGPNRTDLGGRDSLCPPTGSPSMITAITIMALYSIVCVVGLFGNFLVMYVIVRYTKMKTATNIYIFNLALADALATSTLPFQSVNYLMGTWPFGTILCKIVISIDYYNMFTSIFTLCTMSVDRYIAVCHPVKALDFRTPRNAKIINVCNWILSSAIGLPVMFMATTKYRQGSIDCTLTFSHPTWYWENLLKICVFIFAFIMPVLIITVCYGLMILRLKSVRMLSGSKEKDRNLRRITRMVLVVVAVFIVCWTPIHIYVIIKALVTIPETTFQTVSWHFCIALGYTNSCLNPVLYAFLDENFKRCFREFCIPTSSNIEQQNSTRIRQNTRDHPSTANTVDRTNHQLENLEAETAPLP

[26] = molecular target: 5-hydroxytryptamine receptor 7 (Homo sapiens, UniProt P34969); assay: Displacement of [3H]LSD from human recombinant 5-HT7 receptor after 120 mins by scintillation counting analysis
Histamine H1 receptor [27] = molecular target: T1, Histamine H1 receptor; assay: Displacement of [3H]pyrilamine from human recombinant histamine H1 receptor at 1 uM after 60 mins by scintillation counting analysis relative to control

Sequence of Adenosine receptor A1 (Homo sapiens) (P30542 whole entry): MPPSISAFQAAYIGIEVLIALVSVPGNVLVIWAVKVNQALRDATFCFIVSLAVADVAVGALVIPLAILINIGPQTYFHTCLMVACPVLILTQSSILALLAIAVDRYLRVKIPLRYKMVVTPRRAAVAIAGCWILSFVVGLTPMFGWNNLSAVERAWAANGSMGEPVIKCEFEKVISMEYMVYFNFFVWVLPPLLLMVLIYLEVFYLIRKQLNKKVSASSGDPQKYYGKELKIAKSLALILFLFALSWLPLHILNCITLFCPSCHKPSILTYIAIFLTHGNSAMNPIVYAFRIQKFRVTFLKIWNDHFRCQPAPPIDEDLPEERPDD

For `CC(C)(C)NS(=O)(=O)c1ccc(-c2sc(C(=O)N[C@H]3C[C@H](C(=O)O)C3)nc2CC2CCCCC2)c2ccccc12`, the inhibition [1] was less than 10%, the inhibition [2] was less than 10% and the Vd [3] was 1.1 L/kg. The IC50 [4] was 0.22 nM, the inhibition [5] was less than 10% and the inhibition (Histamine H2 receptor) was less than 10%. For the same molecule, the inhibition [6] was 81%, the inhibition [7] was less than 10% and the IC50 [8] was 0.081 nM. It also gave an IC50 (D(2) dopamine receptor) of 1.8 nM, an inhibition [9] of less than 10% and an inhibition (Homo sapiens) of 14%. For the same molecule, the inhibition (Histamine H1 receptor [10]) was 54%, the inhibition [11] was less than 10% and the inhibition (Rattus norvegicus [12]) was less than 10%. The inhibition [13] was less than 10%, the inhibition [14] was 5% and the inhibition [15] was 2%. It also gave an inhibition [16] of less than 10%, an inhibition [17] of -7% and an inhibition (D(1A) dopamine receptor) of less than 10%. The inhibition [18] was -5%, the inhibition [19] was 12% and the inhibition [20] was less than 10%. The inhibition [21] was less than 10%, the inhibition (Rattus norvegicus [22]) was less than 10% and the INH (Cytochrome P450 3A4) was greater than 10 µM. The inhibition [23] was -5%, the inhibition [24] was less than 10% and the IC50 [25] was 0.012 nM. The IC50 (Mu-type opioid receptor) was 1.1 nM, the IC50 [26] was 0.39 nM and the inhibition (Histamine H1 receptor [27]) was 11%.
